Laboratory results as given in patent US11484032B2, “Compositions for inhibition of insect sensing” (Vanderbilt University, priority 2011, dated 2022).

Tests used:
[1] = test system: AgORco-expressing CpB/C neurons; experiment: Single sensillum recording, capitate peg sensilla, CpB/C neurons; format: in vivo, Anopheles gambiae; details: compound delivered via glass recording electrode
Description: Single sensillum recordings were performed on 4-7 day old, non-bloodfed Anopheles gambiae females maintained on 10% sucrose and a 12/12 light dark cycle. Legs, wings and antennae were removed from cold-anesthetized females that were then restrained on double-stick tape with thread. A glass reference electrode filled with Sensillar lymph ringers (SLR)(Xu, 2005) was placed in the eye and the recording electrode filled with DMSO or VUAA1 diluted in SLR was used to puncture sensilla at their base. Responses were recorded and digitized using a Syntech IDAC-4 and analyzed with AutoSpike software (Syntech). New glass recording pipettes were used for every recording. Data was sampled at 12 kHz.
The inventors next performed single unit, extracellular electrophysiological recordings on adult female An. gambiae to determine whether VUAA1 could activate AgORco-expressing odorant receptor neurons (ORNs) in vivo. ORNs, which express AgORco and a conventional OR are enclosed within the hair-like sensilla present on olfactory tissues. […] CpA is clearly distinguished from CpB/C by its large action potential amplitude. The action potential amplitudes of CpB and CpC are much smaller and in some preparations indistinguishable from each other; as a result, the spike activity of CpB and CpC neurons were binned for data analysis. […]

HvOR2 = experiment: Whole-cell patch clamp, HEK cells transiently expressing HvOR2; format: cell-based, Heliothis virescens; details: HvOR2 transiently transfected HEK cells
Excerpt: For transient transfections, ORs were cloned into pCl (Promega) and transfected into Flp-In™ T-REx™293 cell lines (Invitrogen) with Fu GENE6 (Roche). For the creation of stable cell lines, a cell culture expression vector capable of expressing Orco in conjunction with a conventional OR, pcDNA5/FRT/TO (Invitrogen) was modified to create two individual expression cassettes each under the control of a separate CMV/Tet02 promoter and a BGH poly-adenylation signal. Cells (as above) were transfected with the modified pcDNA5 plasmid along with POG44 (a Flp recombinase expression plasmid) to facilitate site-specific recombination. Stable cell lines were selected using Hygromycin B (Invitrogen). Cells were maintained in DMEM (Invitrogen) supplemented with 10% Tetracycline-free FBS (HyClone) and 15 ng/ml Blasticidin. […] Baseline readings were taken for 20 s before automated addition of compound previously diluted in DMSO and assay buffer. […]
Currents from OR-expressing HEK293 cells were amplified with an Axopatch 200b Amplifier (Axon Instruments) and digitized through a Digidata 1322A (Axon Instruments). Electrophysiological data was recorded and analyzed using pCLAMP 10 (Axon Instruments). […]

AgORco = target: T1, AgORco (Anopheles gambiae, UniProt Q7QCC7); experiment: Whole-cell patch clamp, HEK293 cells stably expressing AgORco alone; format: cell-based
T1 construct: expressed in transfected cells
T1 sequence (Q7QCC7 1-478): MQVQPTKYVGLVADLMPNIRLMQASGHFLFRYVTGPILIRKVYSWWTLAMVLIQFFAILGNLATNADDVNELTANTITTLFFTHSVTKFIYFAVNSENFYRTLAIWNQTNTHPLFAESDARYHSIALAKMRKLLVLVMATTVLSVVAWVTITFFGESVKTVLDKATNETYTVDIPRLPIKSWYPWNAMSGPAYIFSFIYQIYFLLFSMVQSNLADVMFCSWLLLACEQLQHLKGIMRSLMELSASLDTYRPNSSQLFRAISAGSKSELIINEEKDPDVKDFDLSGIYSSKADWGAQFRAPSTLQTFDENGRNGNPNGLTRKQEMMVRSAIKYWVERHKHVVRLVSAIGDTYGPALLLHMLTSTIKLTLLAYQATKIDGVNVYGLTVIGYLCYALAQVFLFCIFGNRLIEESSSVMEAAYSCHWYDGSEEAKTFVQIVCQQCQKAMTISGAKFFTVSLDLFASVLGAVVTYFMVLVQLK
Description: Currents from OR-expressing HEK293 cells were amplified with an Axopatch 200b Amplifier (Axon Instruments) and digitized through a Digidata 1322A (Axon Instruments). Electrophysiological data was recorded and analyzed using pCLAMP 10 (Axon Instruments). Electrodes were fabricated from quartz tubing (Sutter Instruments) and pulled to 4-6 MiΩ for whole cell recording. Electrodes were filled with internal solution (120 mM KCl, 30 mM D-glucose, 10 mM HEPES, 2 mM MgCl2, 1.1 mM EGTA, and 0.1 CaCl2) (pH 7.35, 280 mOsm). External (bath) solution contained 130 mM NaCl, 34 mM D-glucose, 10 mM HEPES, 1.5 mM CaCl2), 1.3 mM KH2PO4, and 0.5 MgSO4 (pH 7.35, 300 mOsm). Compounds were diluted in external solution and locally perfused to the recording cell using Perfusion Pencil (Automate Scientific) and controlled by a ValveLink 8.2 controller (Automate Scientific). Whole cell recordings were sampled at 10 kHz and filtered at 5 kHz. Outside-out patches were obtained using 10-15MΩ electrodes pulled from standard glass capillaries (World Precision Instruments) and fire-polished with an MF-830 micro forge (Narishige). Single channel recordings were sampled at 20 kHz. Recordings were reduced to 1 kHz and low-pass filtered at 500 Hz for display and analysis using QuB (SUNY at Buffalo).
To test the hypothesis that VUAA1 directly agonized AgORco, whole-cell patch clamp responses were examined in AgORco+AgOR10 expressing cells as well as HEK293 cells stably expressing AgORco alone. […] The VUAA1-dependent currents in AgORco+AgOR10 cells resembled those resulting from application of benzaldehyde, an orthosteric agonist of AgOR10 (FIG. 3C) (Wang, 2010; Carey, 2010). […] To investigate the specificity of VUAA1 agonism, the inventors transiently transfected HEK cells with the AgORco orthologs of Drosophila melanogaster and Heliothis virescens, DmORco and HvOR2 respectively.

CCc1ccc(NC(=O)CSc2nnc(-c3cccnc3)n2CC)cc1 [VUAA1, 2-((4-ethyl-5-(pyridin-3-yl)-4H-1,2,4-triazol-3-yl)thio)-N-(4-ethylphenyl)acetamide]
spike frequency of CpB/C neurons [1]: increased the spike frequency of CpB/C neurons in a dose-dependent manner
whole-cell current response (HvOR2): robust inward currents
whole-cell current response (AgORco; AgORco alone cells, holding potential −60 mV): concentration-dependent inward currents
reversal potential of agonist-induced current (AgORco; AgORco alone, mean s.e.m.): +0.4±1.1 mV
whole-cell current response at −5.0 log M (AgORco; −5.0 log M): no response
